Measured values reported in DBAASP.
In brackets after ≈: the same amount, converted by molar mass. Several values for one entry are separate records, joined by “and”; a condition that tells them apart may be missing. Equal values may be shown once. Each block holds one molecule with its values, some of them ahead of it.

Columns and labels:
Experiment in all cases: ≥ marks a high value that may be exact or a test limit, other limits are often not marked, values filed in µg/mL are converted to µM
[1] = system: Pseudomonas sp. ATCC 15915
[2] = system: Enterococcus faecium ATCC 19434
[3] = system: Staphylococcus aureus ATCC 502A
[4] = system: Acinetobacter baumannii ATCC 15308
[5] = system: Micrococcus luteus ATCC 7468
Escherichia coli BL2 = system: Escherichia coli BL2
[6] = system: Acinetobacter baumannii AYE
[7] = system: Enterococcus faecalis NCTC 775
[8] = system: Acinetobacter baumannii ATCC 17978
[9] = system: Staphylococcus aureus NCTC 13277
[10] = system: Klebsiella pneumoniae NCTC 13368
[11] = system: Staphylococcus aureus NCTC 6571
[12] = system: Enterococcus faecalis NCTC 12201
[13] = system: Candida albicans NCPF 3179
[14] = system: Pseudomonas aeruginosa PAO1
[15] = system: Staphylococcus aureus NCTC 13616
Klebsiella pneumoniae M6 = system: Klebsiella pneumoniae M6
[16] = system: Pseudomonas aeruginosa NCTC 13437
[17] = system: Escherichia coli ATCC 25922
[18] = system: Bacillus cereus ATCC 14579
Enterobacter sp. = system: Enterobacter sp.
Escherichia coli = system: Escherichia coli
Serratia marcescens = system: Serratia marcescens
[19] = system: Staphylococcus aureus ATCC 25923
[20] = system: Bacillus subtilis ATCC 6633
[21] = system: Klebsiella pneumoniae ATCC 700603
[22] = system: Salmonella enterica subsp. enterica serovar Enteritidis ATCC 13076
Bacillus anthracis = system: Bacillus anthracis
[23] = system: Lactococcus lactis ATCC 11454
Bacillus subtilis = system: Bacillus subtilis
Bacillus licheniformis = system: Bacillus licheniformis
Staphylococcus aureus = system: Staphylococcus aureus
Priestia flexa = system: Priestia flexa
[24] = system: Lactiplantibacillus plantarum ATCC 8014
Candida tropicalis = system: Candida tropicalis
Salmonella enterica = system: Salmonella enterica
Pseudomonas aeruginosa = system: Pseudomonas aeruginosa
Escherichia coli JM109 = system: Escherichia coli JM109
Citrobacter koseri = system: Citrobacter koseri
[25] = system: Staphylococcus aureus CCRC 15211
[26] = system: Staphylococcus aureus CCRC 12652
[27] = system: Klebsiella pneumoniae CCRC 10694
[28] = system: Salmonella typhimurium CCRC 12947
Escherichia coli BL21 = system: Escherichia coli BL21
[29] = system: Streptococcus alactolyticus
Staphylococcus xylosus = system: Staphylococcus xylosus
[30] = system: Vibrio parahaemolyticus CCRC 10806
[31] = system: Staphylococcus aureus A170
[32] = system: Staphylococcus epidermidis

MIC [6]: 19.2 µM and ≥ 38.5 µM | MIC [7]: ≥ 77 µM | MIC [8]: 19.2 µM and ≥ 38.5 µM | MIC [9]: ≥ 77 µM | MIC [10]: ≥ 77 µM | MIC [11]: ≥ 77 µM | MIC [12]: ≥ 77 µM | MIC [13]: ≥ 77 µM | MIC [14]: > 77 µM | MIC [15]: ≥ 77 µM | MIC (Klebsiella pneumoniae M6): ≥ 77 µM | MIC [16]: ≥ 77 µM
Compound: CC[C@H](C)[C@H](NC(=O)[C@@H]1CCCN1C(=O)[C@H](CC(C)C)NC(=O)[C@H](CC(C)C)NC(=O)[C@H](CCCCN)NC(=O)[C@@H](N)CCCCN)C(=O)N[C@H](C(=O)N[C@@H](C)C(=O)N[C@@H](CC(N)=O)C(=O)N[C@@H](CC(C)C)C(=O)N[C@@H](CC(C)C)C(=O)N[C@@H](CCCCN)C(=O)N[C@@H](CO)C(=O)N[C@@H](CC(C)C)C(=O)N[C@@H](CC(C)C)C(N)=O)C(C)C [KKLLPIVANLLKSLL]

MIC (Salmonella enterica): 10.6 µM (≈ 16 µg/mL) | MIC (Pseudomonas aeruginosa): 84.5 µM (≈ 128 µg/mL) | MIC (Escherichia coli JM109): 5.28 µM (≈ 7.99 µg/mL) | MIC (Citrobacter koseri): 2.64 µM (≈ 4 µg/mL) | MIC [25]: 21.1 µM (≈ 32 µg/mL) | MIC [26]: 15.9 µM (≈ 24 µg/mL) | MIC [27]: 21.1 µM (≈ 32 µg/mL) | MIC [28]: 21.1 µM (≈ 32 µg/mL) | MIC (Escherichia coli BL21): 5.28 µM (≈ 7.99 µg/mL) | MIC [29]: 10.6 µM (≈ 16 µg/mL) | MIC (Staphylococcus xylosus): 1.32 µM (≈ 2 µg/mL)
Compound: CC[C@H](C)[C@H](N)C(=O)N[C@@H](CC(N)=O)C(=O)N[C@@H](CC(C)C)C(=O)N[C@@H](CCCCN)C(=O)N[C@@H](C)C(=O)N[C@H](C(=O)N[C@@H](C)C(=O)N[C@@H](C)C(=O)N[C@@H](Cc1ccccc1)C(=O)N[C@@H](C)C(=O)N[C@@H](CCCCN)C(=O)N[C@@H](CCCCN)C(=O)N[C@@H](CC(C)C)C(=O)N[C@@H](CC(C)C)C(N)=O)[C@@H](C)CC [INLKAIAAFAKKLL]
MIC [30]: 21.1 µM (≈ 32 µg/mL)

Second part, the molecule before the results:

Compound: CC[C@H](C)[C@H](NC(=O)[C@H](C)NC(=O)[C@H](Cc1ccccc1)NC(=O)[C@H](Cc1c[nH]c2ccccc12)NC(=O)[C@H](CCC(N)=O)NC(=O)[C@H](C)NC(=O)[C@H](CCCN=C(N)N)NC(=O)[C@@H](NC(=O)[C@H](Cc1ccccc1)NC(=O)[C@H](CCC(N)=O)NC(=O)[C@@H]1CCCN1C(=O)[C@@H]1CCCN1C(=O)[C@@H](N)CCCN=C(N)N)[C@@H](C)O)C(=O)N[C@@H](CCC(N)=O)C(=O)N[C@@H](Cc1cnc[nH]1)C(=O)N[C@H](C(=O)N[C@@H](CO)C(=O)N[C@@H](CC(C)C)C(=O)N[C@@H](CC(N)=O)C(=O)O)[C@@H](C)CC [RPPQFTRAQWFAIQHISLN]
MIC [1]: 10 µM (≈ 23.1 µg/mL) | MIC [2]: 10 µM (≈ 23.1 µg/mL) | MIC [3]: 10 µM (≈ 23.1 µg/mL) | MIC [4]: 10 µM (≈ 23.1 µg/mL) | MIC [5]: 10 µM (≈ 23.1 µg/mL) | MIC (Escherichia coli BL2): 10 µM (≈ 23.1 µg/mL)

Compound: CC(C)C[C@H](NC(=O)[C@@H](NC(=O)[C@H](CO)NC(=O)[C@H](CC(C)C)NC(=O)[C@@H]1CCCN1C(=O)[C@H](CC(C)C)NC(=O)[C@H](CO)NC(=O)[C@H](CCCCN)NC(=O)[C@H](CO)NC(=O)[C@@H](N)Cc1ccc(O)cc1)C(C)C)C(=O)N[C@@H](CC(N)=O)C(=O)N1CCC[C@H]1C(=O)O [YSKSLPLSVLNP]
MIC [17]: 6.07 µM (≈ 8 µg/mL) | MIC [18]: ≥ 48.6 µM | MIC (Enterobacter sp.): 12.1 µM (≈ 16 µg/mL) | MIC (Escherichia coli): 6.07 µM (≈ 8 µg/mL) | MIC (Serratia marcescens): 24.3 µM (≈ 32 µg/mL) | MIC [19]: 24.3 µM (≈ 32 µg/mL) | MIC [20]: 12.1 µM (≈ 16 µg/mL) | MIC [21]: 12.1 µM (≈ 16 µg/mL) | MIC [22]: 3.04 µM (≈ 4 µg/mL) | MIC (Bacillus anthracis): ≥ 97.2 µM | MIC [23]: ≥ 97.2 µM | MIC (Bacillus subtilis): 24.3 µM (≈ 32 µg/mL) | MIC (Bacillus licheniformis): ≥ 97.2 µM | MIC (Staphylococcus aureus): 48.6 µM (≈ 64 µg/mL) | MIC (Priestia flexa): 24.3 µM (≈ 32 µg/mL) | MIC [24]: 24.3 µM (≈ 32 µg/mL)

Compound: CSCC[C@H](NC(=O)[C@@H](N)CC(C)C)C(=O)N[C@H]1CSSC[C@@H](C(=O)N[C@@H](CO)C(=O)N[C@@H](CC(N)=O)C(=O)O)NC(=O)[C@H](CC(=O)O)NC(=O)[C@H](CC(C)C)NC(=O)[C@@H]2CCCN2C(=O)[C@H](Cc2cnc[nH]2)NC(=O)[C@H]([C@@H](C)O)NC1=O [LMCTHPLDCSN]
MIC (Candida tropicalis): 25.9 µM (≈ 31.9 µg/mL)

Compound: CC[C@H](C)[C@H](NC(=O)[C@@H]1CCCN1C(=O)[C@H](CC(C)C)NC(=O)[C@@H](N)CC(C)C)C(=O)N[C@H](C(=O)N[C@@H](C)C(=O)N[C@@H](CC(N)=O)C(=O)N[C@@H](CC(C)C)C(=O)N[C@@H](CC(C)C)C(=O)N[C@@H](CCCCN)C(=O)N[C@@H](CO)C(=O)N[C@@H](CC(C)C)C(=O)N[C@@H](CC(C)C)C(=O)O)C(C)C [LLPIVANLLKSLL]
MIC [31]: 3.55 µM (≈ 5 µg/mL) | MIC [32]: 7.11 µM (≈ 10 µg/mL)
